SMILES strings stand for the structures. Entries after “also recorded” stand apart in the source; their conditions may differ.

In assay [1] the test system is human vomeronasal organ (VNO). Description: Local electrical potential of the VNO on localized gaseous stimulation (Example 52). The assay is classed as in vivo. The conditions noted are these: for VNO response, males versus females (sexual dimorphism): FIG. 2B; for VNO response: male subjects, about 25 pg to the nasal cavity, response measured in mV×s, FIG. 2A. As for the experimental part:
(§1) A non-invasive method has been employed to record local electrical potentials from the human vomeronasal organ (VNO) and from the olfactory epithelium (OE). Localized gaseous stimulation was applied to both nasal structures at different instances using specially designed catheter/electrodes connected to a multichannel drug delivery system.
(§2) The study was performed on ten clinically normal (screened) volunteers—2 males and 8 females, ranging in age from 18 to 85 years. The studies were conducted without general or local anesthetics.
(§3) The catheter/electrodes were designed to deliver a localized stimulus and simultaneously record the response. In the case of VNO recording, the right nasal fosa of the subject was explored using a nasoscope (nasal specula) and the vomeronasal opening was localized close to the intersection of the anterior edge of the vomer and the nasal floor. The catheter/electrode was gently driven through the VNO-opening and the electrode tip placed in the organ's lumen at 1 to 3 mm from the opening. The nasoscope was then removed. In the case of the OE, recording the procedure was similar except the positioning of the catheter/electrode was gently placed deep in the lateral part of the medial nasal duct, reaching the olfactory mucosa.
Localized gaseous stimulation was done through the catheter/electrode. A constant stream of clean, nonodorous, humidified air at room temperature was continuously passed through a channel of the stimulating system. The stimulating ligand substances were diluted in propylene glycol, mixed with the humidified air, and puffed for from 1 to 2 seconds through the catheter/electrode. It is estimated that this administration provides about 25 pg of steroid-ligand to the nasal cavity.
(§4) The response is measured in millivolt-seconds (mV×s).

The test system of assay [2] is VNO. Description: Electro-vomeronasogram (EVG) (Example 57). The assay is classed as in vivo, human. The conditions noted are these: male subjects (ages 20 to 38); 100 fmoles; 1 second pulses; FIG. 6A. As for the experimental part: The following electrophysiological studies were performed in 60 clinically normal human volunteers of both sexes (30 male and 30 female) whose ages ranged from 20 to 45 years. No anesthetics were used, and female subjects were excluded if pregnant.
The stimulation and recording system consists of a “multifunctional miniprobe” described elsewhere (Monti-Bloch, L. and Grosser, B. l. (1991) “Effect of putative pheromones on the electrical activity of the human vomeronasal organ and olfactory epithelium,” J. Steroid Biochem. Molec. Biol. 39:573-582.). The recording electrode is a 0.3 mm silver ball attached to a small (0.1 mm) silver wire insulated with Teflon© the surface of the electrode is first treated to produce a silver chloride interface, and is then covered with gelatin It is positioned within a small caliber Teflon© catheter (dia=5 mm) such that the tip of the electrode protrudes approximately 2 mm. The Teflon© catheter is 10 cm in length and constitutes the terminal extension for a multichannel delivery system which delivers a continuous air stream carrying discreet pulses of chemosensory stimuli. The air stream first passes into a small chamber and is bubbled through a solution containing either a vomeropherin or an olfactant in a diluent or the diluent alone. A solenoid is used to rapidly redirect the air stream from the chamber to a route which bypasses the chamber. This creates a discreet pulse of stimulant in the air stream. A second, outer Teflon® tube with a diameter of 2 mm surrounds the catheter-electrode assemblage, and its central end is connected to an aspirator that provides continuous suction of 3 ml/s. This concentric arrangement of the outer suction tube allows the emitted chemosensory stimuli to be localized to an area we call a “minifield” (approx. dia=1 mm), and it avoids diffusion of substances either to the area outside the intended stimulation site or into the respiratory system. The entire stimulating and recording assemblage may be positioned either on the neurosensory epithelium within the VNO, or on the surface of the olfactory or respiratory epithelium.
Electro-vomeronasogram (EVG): Recordings are carried out in a quiet room with the subject supine; the multi-functional miniprobe is initially stabilized within the nasal cavity using a nasal retractor placed in the vestibule. Reference and ground electrodes consist of silver discs (8 mm), both of which are positioned on the glabella.
The entrance to the VNO, or vomeronasal pit, is identified by first dilating the nasal aperture and vestibule. A 6× magnifying binocular loupe with halogen illumination is then used to introduce the tip of the Teflon® catheter and recording electrode assemblage into the VNO opening where it is stabilized at an approximate depth of 1 mm within the vomeronasal passage. Optimal placement of the recording electrode is signaled after testing for an adequate depolarization in response to a test substance.
Electrical signals from the recording electrode are fed to a DC amplifier after which they are digitized, computer monitored, and stored. The peak-to-peak amplitude of the signals is measured, and the area under the depolarization wave is integrated, while continuously monitoring the signal both on the computer screen and on a digital oscilloscope. Artifacts produced by respiratory movements are deleted by training the subjects to practice mouth breathing with velopharyngeal closure.
Chemosensory Stimulants: Olfactory test substances are cineole, and 1-carvone; vomeropherins are A, B, C, E and F. (Vomeropherins were supplied by Pherin Corporation, Menlo Park, Calif.), Samples of vomeropherins In. concentration of 25-800 fmoles are delivered in the continuous air stream for durations from 300 milliseconds to 1 second. Usually, intervals of 3 to 5 minutes separated each series of short test pulses. […]

For assay [3], the system named is VNO. Description: Cortical activity (EEG) on VNO stimulation with vomeropherins. The assay is classed as in vivo, human. To be noted: males; 200 fmoles; air pulses 300 ms to 1 sec; FIG. 6E. As for the experimental part:
(§5) Cortical evoked activity was induced by VNO stimulation with vomeropherins, and olfactory stimulation with odorants delivered in 300 ms air pulses. It was recorded using standard electroencephalographic (EEG) electrodes placed at positions Cz-A1 and Tz-A1 of the international […] system; the ground electrode was placed on the mastoid process. Electrodermal activity (EDA) was recorded using standard 8 mm silver electrodes in contact with palmar skin of the medial and ring fingers, respeCtively, through a conductive gel interface. Skin temperature (ST) was recorded by a small (1.0 mm) thermistor probe placed in the right ear lobe. Peripheral arterial pulse (PAP) was monitored with a plethysmograph attached to the tip of the index finger. Respiratory frequency (RF) was measured with an adjustable strain gauge placed around the lower thorax. All electrical signals were DC amplified, digitized (MP-100, Biopac Systems) and continuously monitored utilizing a computer.
(§6) Statistical Analysis: EVGs or EOGS, peak-to-peak changes and frequency changes of other parameters were measured and statistically analyzed. The significance of the results was determined by either using paired t-tests or analysis of variance (ANOVA).
[…] […] Synchronization of the EEG was sustained for 1.5 to 2.7 minutes after application of a single pulse of active substance.

Assay [4] has as its system VNO. Nature of the assay: Skin temperature (ST) on vomeropherin stimulation of the VNO. The assay is classed as in vivo, human. To be noted: 30 male subjects; p<0.01; FIG. 6G. As for the experimental part:
as §5, §6
In female subjects vomeropherins produced changes in EDA and ST with a greater standard deviation than in males.

In assay [5] the test system is olfactory epithelium (OE). Description: Local electrical potential of the olfactory epithelium on localized gaseous stimulation (Example 52). It is filed as in vivo, human. The conditions noted are these: both males and females; compared to clove; FIG. 2C. As for the experimental part:
as §1, §2, §3
Localized gaseous stimulation was done through the catheter/electrode. […]
as §4

In assay [6] the test system is VNO. Description: Electrodermal activity (EDA) on vomeropherin stimulation of the VNO. The conditions noted are these: male subjects, n=30; p<0.01; FIG. 6C. The assay is classed as in vivo, human. As for the experimental part:
as §5, §6
Reflex Effects of Vomeropherins: Studies were conducted to determine the central nervous system (CNS) reflex responses to vomeropherin stimulation of the VNO. The sexually dimorphic local responses induced by vomeropherins (FIGS. 6A and B) were mirrored in the autonomic response of male & female subjects. […] In female subjects.

Assay [7] concerns VNO. The conditions noted are these: 2% lidocaine applied to the respiratory epithelium of the nasal septum; cited from earlier work.
Assay [8] has as its system VNO. Nature of the assay: Comparison of change in receptor potential induced by two Estrene steroids (Example 55). It is filed as in vivo, human. To be noted: 60 picograms; a subject; FIG. 5. As for the experimental part:
60 picograms of each steroid and of a propylene glycol control were administered to a subject as described in Example 21.

For the compound `C[C@@]12C=CC[C@H]1[C@@H]1CCc3cc(O)ccc3[C@H]1CC2` [C, 1,3,5(10),16-Estratetraen-3-ol], in assay [1], the “VNO response, males versus females (sexual dimorphism)” value is “approximately four times as strong in males as it is in females” and the VNO response entry is on record as “significantly stronger VNO response in males than do the other compounds tested”. In addition, in assay [2], the “EVG average response (mean)” value came to 6.4 mV. Moreover, the alpha cortical activity entry in assay [3] was “significantly increased alpha cortical activity”. The “skin temperature (ST)” value in assay [4] is “significant increase in skin temperature”. For the same compound, in assay [5], the OE response entry is listed as “low compared to a strong odorant such as clove”. The “skin resistance (electrodermal activity, EDA)” value in assay [6] is listed as “decreased skin resistance”.
Turning to `C[C@]12CC[C@@H]3c4ccc(O)cc4CC[C@H]3[C@@H]1C[C@@H](O)[C@@H]2O` [1,3,5(10)-Estratrien-3,16α,17β-triol, reference compound], in assay [1], the “VNO response, males versus females (sexual dimorphism)” value was “approximately four times as strong in males as it is in females” and the VNO response result is on record as “strong VNO response”. Further, in assay [5], the OE response result is recorded as “low compared to a strong odorant such as clove”.
As for `CCN(CC)CC(=O)Nc1c(C)cccc1C` [lidocaine], in assay [7], the “effect of local anesthetic on the EVG” value is “neither blocks nor diminishes the EVG”.
Regarding `COc1ccc2c(c1)CC[C@@H]1[C@@H]2CC[C@]2(C)C=CC[C@@H]12` [D, 3-Methoxy-Estra-1,3,5(10)16-tetraene], the “EVG average response (mean)” value in assay [2] is listed as 15.1 mV. The alpha cortical activity result in assay [3] is “significantly increased alpha cortical activity; also recorded: strongest effect”. The “change in receptor potential” value in assay [8] is recorded as “greater change in receptor potential than did 1,3,5(10),16-Estratetraen-3-yl acetate”. Further, the “skin temperature (ST)” value in assay [4] is “significant temperature decrease”.

The values above are taken from patent publication US6352980B1, “Estrenes for inducting hypothalamic effects” (Pherin Pharmaceuticals, Inc., priority 1991, dated 2002).
